Results on two compounds are retold here after patent publication US10502742B2, “Flourescent exomarker probes for hydrogen sulfide detection” (AMRITA VISHWA VIDYAPEETHAM, priority 2017, dated 2019).

A value given as a limit tells only on which side of the number the result lay.

Data set [1] concerns HeLa cells. The data set is described as follows: In vitro cytotoxicity, MTT assay. Particulars: 48 h incubation. It counts as cell-based, Human. The method, then:
(§1) Human cervical cancer cells (HeLa), breast cancer cells (MDA-MB-231), prostate cancer cells (DU 145) and 3T3-L1 fibroblast cells were cultured in DMEM high glucose media supplemented with 10% fetal bovine serum, 1% Penstrep, 0.2% Amphotericin B. The cells were grown overnight at 37° C. incubator with 5% CO2. HeLa, MDA-MB-231, DU 145, and 3T3-L1 cells were seeded at a density of 0.3×10^6 cells in 35 mm dish and kept overnight. The probe Mito-HS prepared in Example 1 was dissolved in 0.2% DMSO to make a stock concentration of 10 mM. The cells were treated with 5 μM of Mito-HS for 15 min. 300-550 nm excitation light was used to measure its fluorescence properties. Images were acquired using Zeiss Fluorescence Microscope (A1 Axiovert) with ×40 objective lens.
(§2) Prior to the application of probe in vitro, cytotoxicity study was performed to check its biocompatibility. HeLa, MDA-MB-231 and DU145 cells were considered to assess the cytotoxicity of Mito-HS by conventional MTT assay. The cells were treated with Mito-HS and incubated for 48 h.
In general terms: Tetrazolium dyes change colour on reduction, which living cells bring about.

For data set [2], the system named is DU145 cells. The data set is described as follows: In vitro cytotoxicity, MTT assay. Particulars: 48 h incubation. It counts as cell-based, Human. The protocol: as §1, §2
In data set [3] the test system is MDA-MB-231 cells. The data set is described as follows: In vitro cytotoxicity, MTT assay. It counts as cell-based, Human. Particulars: MDA-MB-231, MTT, 48 h incubation. The method, then: as §1, §2
Data set [4] is described as follows: Fluorescence response of Mito-HS to variable concentrations of Na2S (H2S) in PBS. The method, then:
UV-Vis and fluorescence spectroscopy was studied and changes of Mito-HS was recorded in variable concentrations of Na2S (0-200 μM) in PBS buffer solution containing 0.2% of DMSO at physiological pH (pH 7.4) to study the performance of the probe in H2S (Na2S) environment as shown in FIG. 3A-C. In FIG. 3A, the UV-Vis absorption band at λab 370 nm gradually decreases with the appearance of a new absorption band at λab 395 nm in the presence of variable concentrations of H2S.

The test system of a further data set is 3T3-L1 cells. The data set is described as follows: Fluorescence microscopy of endogenous H2S in cells. It counts as cell-based. Particulars: 3T3-L1 normal cells, similar conditions, even after an hour. The method, then: as §1
(§3) Fluorescence microscopic study was performed for Mito-HS treated and untreated cancer cells (HeLa, MDA-MB-231 and DU145 cells) and normal cell (3T3-L1 cells) by illuminating lights of 390 nm as excitation wavelength and monitoring the emission over 440-500 nm range. […] In contrast, Mito-HS pretreated normal cells were remained non-fluorescent under similar conditions even after an hour. The insufficient production of H2S in 3T3-L1 cells was responsible for their non-fluorescent images.

A short description of data set [5]: Time-dependent fluorescence of Mito-HS in the presence of H2S. Particulars: H2S (20.0 eq.). The protocol:
The environment of biological entities in cellular milieu is temporal, henceforth, the response time of probe for an analyte is crucial. Thus, time-dependent fluorescence data at λmax 450 nm were recorded in the presence of H2S (20.0 eq.). […] The rate of reaction of Mito-HS with H2S was calculated to be 5.4×10^−3 s^−1.

Data set [6] deals with mitochondria of MDA MB 231 cells. The data set is described as follows: Co-localization experiment with MitoSox Red. In kind it is cell-based, Human. The method, then: (§4) In order to evaluate the mito-targeting nature of Triphenylphosphonium ion of Mito-HS, a co-localization experiment was carried out with MitoSox Red, which is a mitochondria targeting dye, to make a comparison study.

The test system of data set [7] is mitochondria of DU145 cells. The data set is described as follows: Co-localization experiment with MitoSox Red. It counts as cell-based, Human. The protocol: as §4
For data set [8], the system named is mitochondria of HeLa cells. The data set is described as follows: Co-localization experiment with MitoSox Red. It counts as cell-based, Human. The protocol: as §4
For data set [9], the system named is HeLa cells. The data set is described as follows: Fluorescence microscopy of endogenous H2S in cells. In kind it is cell-based, Human. The protocol: as §1, §3
(§5) To assure that the fluorescence image of the Mito-HS treated cells were solely due to production of endogenous H2S instead of any other endogenous thiol-like entities such as GSH, cysteine and homocysteine, HeLa, MDA-MB-231 and DU145 cells were pretreated with a thiol-masking agent, here N-ethyl maleimide (NEM).

Data set [10] relates to DU145 cells. The data set is described as follows: Fluorescence microscopy of endogenous H2S in cells. It counts as cell-based, Human. The method, then:
as §1, §3, §5

Data set [11] relates to MDA-MB-231 cells. The data set is described as follows: Fluorescence microscopy of endogenous H2S in cells. In kind it is cell-based, Human. The method, then: as §1, §3, §5
Data set [12] in a line: Selectivity: fluorescence responses in the presence of biologically important analytes. Particulars: Mito-HS 5 μM; PBS, 0.2% DMSO, pH 7.4, 37° C.; excitation 380 nm. The protocol:
Fluorescence responses of Mito-HS (5 μM) in the presence of various biologically important analytes such as H2S, cysteine (Cys), H2O2, NaNO2, Cu(OAc)2, Zn(OAc)2, FeSO4, FeCl3, Na2CO3, GSH, and ascorbic acid (AA) NO, Na2S2O4 in aqueous solutions (in PBS, 0.2% DMSO, pH=7.4) at 37° C. were studied as shown in FIG. 5. Excitation wavelength was set at 380 nm and excitation and emission slit widths both set at 3 nm. Error bars were obtained from triplet experimental data. […] So, the experiment supported the proposed concept of using Mito-HS to track cellular H2S over other competing substances such as thiols.

A short description of data set [13]: Detection of H2S in blood serum by fluorescence spectroscopy. Particulars: fetal bovine serum (0.45 mM albumin protein), 37° C.; ex 380 nm, em 450 nm. The protocol:
Fluorescence spectroscopy was performed for Mito-HS in fetal bovine serum at 37° C. Excitation and emission wavelengths were set at 380 nm and 450 nm respectively and slit widths at 3 nm.

Data set [14] is described as follows: Physiological pH stability study by fluorescence spectrometry. It counts as physicochemical. An excerpt: The stability and reactivity of Mito-HS toward H2S in various physiological pH was studied in fluorescence spectrometry as shown in FIG. 6.
A short description of data set [15]: Determination of fluorescence quantum yield. In kind it is physicochemical. The conditions noted are these: PBS 10 mM, pH 7.4, quinine standard. The protocol: The fluorescence quantum yield of Mito-HS was determined in the presence and absence of H2S in PBS buffer solution of 10 mM concentration and in the physiological pH of 7.4 taking quinine (ΦX=0.542) as standard. The fluorescence quantum yield was calculated by the equation: ΦS=ΦX (ASFS/AXFX), where, AS and AX are the absorbance of the sample and the reference, respectively; at the same excitation wavelength, FS and FX are the corresponding relative integrated fluorescence intensities. The quantum yield for Mito-HS calculated to be 0.045 was increased to 0.479 due to formation of FL-1 in the presence of H2S.

For data set [16] the following is noted: reference standard value; cited from earlier work.

For `[N-]=[N+]=Nc1ccc2cc(C(=O)NCC[P+](c3ccccc3)(c3ccccc3)c3ccccc3)c(=O)oc2c1` [Mito-HS], the “cytotoxicity (cell viability)” value in the data set on HeLa cells [1], in the data set with DU145 cells [2] and with MDA-MB-231 cells [3] was “did not show cytotoxic behavior” throughout. In data set [4] (H2S 0-200 μM added, λmax 450 nm), the “H2S concentration at fluorescence saturation point” value turned out to be 200 µM. The “fluorescence intensity increase in the presence of H2S” value in [4] (H2S 200 μM, λmax 450 nm, PBS pH 7.4, 0.2% DMSO) was about 43 fold. Moreover, in data set [4] (PBS pH 7.4, 0.2% DMSO), the “H2S concentration range detectable (physiological condition)” value was 10-600 μM. Also, the “lower detection limit for H2S” value in data set [4] (calculated by applying regression equation) was 24.3 nM. Also, the cell fluorescence image entry with 3T3-L1 cells is “non-fluorescent”; in the data set with HeLa cells [9] (Mito-HS 5.0 μM, ex 390 nm, em 440-500 nm) it was “strong fluorescence”; in the data set with DU145 cells [10] (DU145, Mito-HS 5.0 μM, ex 390 nm, em 440-500 nm), “strong fluorescence”; in the data set with MDA-MB-231 cells [11] (MDA-MB-231, Mito-HS 5.0 μM, ex 390 nm, em 440-500 nm) it was “strong fluorescence”. Also, the “rate of reaction of Mito-HS with H2S” value in [5] (fluorescence at λmax 450 nm) is 0.0054 s⁻¹. Also, the “time at which fluorescence intensity plateaued” value in data set [5] (λmax 450 nm) is recorded as over 40 min. Besides, the subcellular localization result in data set [6], in [7] and in [8] was “predominantly in mitochondria” in each case. Also, the “cell fluorescence after pretreatment with thiol-masking agent NEM” value was “equally fluorescent labeled” in the data set on HeLa cells [9] (NEM pretreated vs NEM untreated); “equally fluorescent labeled” in the data set with DU145 cells [10] (DU145, NEM pretreated); “equally fluorescent labeled” in the data set with MDA-MB-231 cells [11] (MDA-MB-231, NEM pretreated). Further, the “fluorescence change with analytes other than H2S” value in data set [12] was “none of the analytes showed considerable fluorescence change other than H2S”. Besides, the “increase of fluorescence intensity in blood serum” value in [13] was determined as 30 fold. For the same compound, the “fluorescence intensity toward H2S at various pH” value in [14] (in H2S environment, pH 4-9) is on record as “high fluorescence intensity was observed in H2S environment with sharp depreciation in lower pH range”. Moreover, the “pH range in which stable” value in data set [14] (in absence of H2S, fluorescence spectrometry) is listed as 4-9. Besides, the fluorescence quantum yield in [15] (absence of H2S) is 0.045; in [15] (presence of H2S (formation of FL-1)), 0.479.

Consider `C=C[C@H]1C[N@@]2CC[C@H]1C[C@H]2[C@H](O)c1ccnc2ccc(OC)cc12` [quinine], for which the “fluorescence quantum yield of standard (ΦX)” value in data set [16] is on record as 0.542.
